# Several values for one entry are separate records, joined by “and”; a condition that tells them apart may be missing. Equal entries are not always repeated. Where two headings read alike, the source gives them in different places.
# Experiments:
# [1] = Solubility assay in 2% DMSO in PBS; format: physicochemical; settings: 2% DMSO in PBS pH 7.3, 0.5 mM, shaken up to six hours
# Procedure: To analyse the solubilities of 17-AAG, geldanamycin, 18,21-dihydromacbecin and macbecin, solutions (25 mM) of the test compounds were prepared by dissolving 3-5 mg aliquots in the appropriate amount of DMSO.
# Aliquots (0.01 mL) were added to 0.490 mL of pH 7.3 PBS in glass vials. For each time point, 3 PBS vials were prepared in amber glass vials. For the six hour time point triplicate aliquots in DMSO were also prepared.
# The resulting 0.5 mM solutions were shaken for up to six hours, with vials removed for analysis at 1, 3 and 6 hours. Samples were analysed by HPLC (0.025 mL injections). Compounds were quantified by peak area measurement at 274 nm.
# Solubility in 2% DMSO in PBS at each time point was determined by comparing total peak areas for each chromatogram with mean total peak area for chromatograms produced from the corresponding 6 hour DMSO solutions. (Mean total peak area in DMSO solutions was assumed to be equivalent to a 0.5 mM solution). The solubility of compound 17 was measured by a thermodynamic assay as described in the general methods.
# [2] = Aqueous solubility by direct dissolution; format: physicochemical; settings: pH 4.5, aqueous buffer, aqueous 5 mM citrate, pH 4.5; limit not tested
# Source text: It is not possible to measure the solubility of 20 and 23 by this method due to their intrinsic high aqueous solubility.
# [3] = In vitro cleavage assay in buffer; format: physicochemical; settings: for half-life at 0.1 mg/ml: read-out: half-life of disappearance (converted)
# Procedure: Samples were monitored by LC-UV, on an Agilent 1100 HPLC. Chromatography was achieved over a Phenomenex Hyperclone column, BDS C18 3 u (150×4.6 mm):
# Mobile phase A: 0.1% Formic acid in water Mobile phase B: 0.1% Formic acid in acetonitrile Flow rate: 1 mL/minute: Gradient, t=0 mins, B=10%; t=2 mins, B=10%; t=20 mins, B=100%.
# Compound 23 elutes at 12.1 mins and compound 17 elutes at 11.2 minutes in these conditions.
# 0.05 ml injections were made, repeatedly from the same sample every 3.18 hours, for 50 hours. the ambient temperature was 23 degrees C. The UV response was measured for each time point for compound 23 and 17. The half-life of disappearance of compound 23 was calculated thus:
# the natural logarithm of the response was plotted with respect to time (in hours). The slope and fit of the resultant line was calculated and the half life, t1/2=(In 2)/lambda. Where lambda is the slope of the graph.
# [4] = target: Hsp90 (Homo sapiens, UniProt P07900); settings: cited from earlier work
# [5] = test system: panel of human tumour cell lines; test: Monolayer proliferation assay, mean across cell line panel; format: cell-based; settings: geometric mean of all replicates across six cell lines
# Procedure: In vitro evaluation of compounds for anticancer activity in a panel of human tumour cell lines in a monolayer proliferation assay was carried out at the Oncotest Testing Facility, Institute for Experimental Oncology, Oncotest GmbH, Freiburg.
# The Oncotest cell lines are established from human tumor xenografts as described by Roth et al., (1999). The origin of the donor xenografts is described by Fiebig et al., (1999). Other cell lines are either obtained from the NCl (DU145, MCF-7) or purchased from DSMZ, Braunschweig, Germany.
# All cell lines, unless otherwise specified, are grown at 37° C. in a humidified atmosphere (95% air, 5% CO2) in a ‘ready-mix’ medium containing RPMI 1640 medium, 10% fetal calf serum, and 0.1 mg/mL gentamicin (PAA, Cölbe, Germany).
# A modified propidium iodide assay was used to assess the effects of the test compound(s) on the growth of six human tumour cell lines (Dengler et al., (1995)).
# Briefly, cells are harvested from exponential phase cultures by trypsinization, counted and plated in 96 well flat-bottomed microtitre plates at a cell density dependent on the cell line (5-10.000 viable cells/well). […] After thawing the plates, fluorescence was measured using the Cytofluor 4000 microplate reader (excitation 530 nm, emission 620 nm), giving a direct relationship to the total number of viable cells.
# Growth inhibition is expressed as treated/control×100 (% T/C). […]
structure (smiles),measurement,setting,value
"COC1CC(C)C(OC)c2cc(O)cc(c2O)NC(=O)/C(C)=C\C=C/C(C)C(OC(N)=O)/C(C)=C\C(C)C1OC (stereo not drawn) [18,21-dihydromacbecin]",solubility,[1],136 µM
"C=CCNC1=C2C[C@@H](C)C[C@H](OC)[C@H](O)[C@@H](C)/C=C(\C)[C@H](OC(N)=O)[C@@H](OC)/C=C\C=C(/C)C(=O)NC(=CC1=O)C2=O [Compound 17-AAG, 17-(allylamino)-17-desmethoxy geldanamycin]",solubility,[1],171 µM
"CNCCN(C)C(=O)Oc1cc2cc(c1)NC(=O)/C(C)=C/CC[C@H](C)[C@@H](OC(N)=O)/C(C)=C/[C@H](C)[C@@H](O)[C@@H](OC)C[C@H](C)C2 [Compound 23, 18-O-(N,N′-dimethylethylenediaminecarbamoyl)-4,5-dihydro-11-O-demethyl-15-demethoxy-18,21-didehydro-18-hydroxy-21-deoxomacbecin]",solubility,[2],≥ 3000 µg/mL and ≥ 4600 µM
same,half-life of disappearance,"[3]; 0.1 M potassium phosphate buffer pH 4.5, 23 degrees C",not calculable (zero slope)
same,half-life at 0.1 mg/ml,"[3]; 0.1 M potassium phosphate buffer pH 5.9, 23 degrees C",69.3 h
same,half-life at 0.1 mg/ml,"[3]; 0.1 M potassium phosphate buffer pH 6.5, 23 degrees C",11.9 h
same,half-life at 0.1 mg/ml,"[3]; 0.1 M potassium phosphate buffer pH 7.4, 23 degrees C",2 h
same,half-life at 0.1 mg/ml,"[3]; 5% glucose, 23 degrees C",32 h
same,product of cleavage,[3]; by LC-UV-MS,compound 17
CO[C@H]1C[C@H](C)Cc2cc(O)cc(c2)NC(=O)/C=C/CC[C@H](OC)[C@@H](OC(N)=O)/C(C)=C/[C@H](C)[C@H]1O [KOSN1559],"binding affinity to Hsp90, greater than 17-AAG",[4]; relative to 17-AAG,8 fold
same,"binding affinity to Hsp90, greater than geldanamycin",[4]; relative to geldanamycin,4 fold
"CO[C@H]1[C@@H](OC)C[C@H](C)[C@@H](OC)C2=CC(=O)C=C(NC(=O)/C(C)=C/C=C\[C@H](C)[C@@H](OC(N)=O)/C(C)=C/[C@@H]1C)C2=O [macbecin, reference compound]",average IC70 value across the cell-line panel,[5],0.21 µg/mL

# Reference: patent publication US20100210597A1, “C21-Deoxy Ansamycin Derivatives as Antitumor Agents” (priority 2007, published 2010)
